Laboratory results taken from patent publication US9220928B2, “Plant extracts from Acronychia species and their use” (EcoBiotics Ltd, priority 2008, dated 2015).

Tested on: Streptococcus salivarius K40
Test: Antibacterial growth inhibition assay
Assay type: cell-based
Settings: HPLC fractions and two pure compounds, further test; Table 9
Method: The bacteria used in these studies were: • Streptococcus salivarius […] • Bacillus subtilis All antibacterial assays were carried out in a laminar flow cabinet using the protocol described below. Growth or no-growth was assessed visually and by ELISA reader. […] This was then placed in the bacterial shaker at 37° C. at 210 rpm overnight. • 2) A blank reading was made on the spectrophotometer at 600 nm using […] of Columbia broth. A reading of 200 μL of the starter culture was then taken. • 3) In calculations, a final concentration of 0.005 was desired. The formula used for dilution of x mL starter was: x*A600=0.005*desired volume • 4) 90 uL of MeOH was added to each well of a 96 well flat bottomed plate. 10 μL of sample was added to the top well and diluted 1:10 down the plate. Alternatively the top rows were left empty of MeOH and 100 μL of sample was added and then diluted at 1:10 down the plate. • 5) The plates were then left to dry in a biological safety cabinet for 2-3 hours or until all solvent had evaporated off the plate. • 6) 100 μL of diluted bacterial culture was then added to each well of the plate. The plate was then placed in the bacterial incubator at 37° C. overnight. […] For quantitation, plates were read at 405 nm (ELISA). […]

| Compound | Amount of fraction giving 100% inhibition of growth of S. salivarius |
| --- | --- |
| CC(C)=CCC/C(C)=C/CC/C(C)=C/COc1ccc(CCC(=O)O)cc1 [EBC111, 3-(4-farnesyloxyphenyl)propionic acid] | 10Ag |
| COc1cc(CCC(=O)O)ccc1OC/C=C(\C)CC/C=C(\C)CCC=C(C)C [EBC125, 3-(4-farnesyloxy-3-methoxyphenyl)propionic acid] | 1 µL |
